# US20110230481A2, “DERIVATIVES OF TETRABROMOBENZIMIDAZOLE, A PROCESS FOR THE PREPARATION THEREOF, A PHARMACEUTICAL COMPOSITION COMPRISING THE SAME, A METHOD OF USING THE SAME, A METHOD FOR MODULATING OR REGULATING SERINE/THREONINE KINASES, AND SERINE/THREONINE KINASES MODULATING AGENT” (SELVITA S.A., priority 2009, published 2011)
# Experiments:
# Test in all cases: KINOMEscan Max
# Assay type in all cases: binding
# [1] = target: ABL1(M351T)-phosphorylated (Homo sapiens, UniProt P00519, M351T)
# Summary of the method: (§1)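 Measures binding, not catalysis: three components (DNA-tagged kinase, immobilized active-site directed ligand, test compound) are combined, and competition is read out by quantitative PCR of the tag.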
# ABL1-phssophorylated = ABL1-phssophorylated (Homo sapiens, UniProt P00519)
# Summary of the method: as §1
# ACVR1B = ACVR1B (Homo sapiens, UniProt P36896)
# Summary of the method: as §1
# AKT3 = target: T1, AKT3 (Homo sapiens, UniProt Q9Y243)
# T1 construct: purchased Ambit (KINOMEscan Max service)
# Summary of the method: as §1
# ASK1 = target: T2, ASK1 (Homo sapiens, UniProt Q99683)
# T2 construct: DNA tag (qPCR label); purchased Ambit Kinomescan (contract screening)
# Summary of the method: as §1
# AURKA = AURKA (Homo sapiens, UniProt O14965)
# Summary of the method: as §1
# CAMK1G = target: T3, CAMK1G (Homo sapiens, UniProt Q96NX5)
# T3 construct: DNA tag (qPCR label); purchased Ambit Kinomescan (contract screening)
# Summary of the method: as §1
# CAMK2G = target: T4, CAMK2G (Homo sapiens, UniProt Q13555)
# T4 construct: DNA tag (qPCR label); purchased Ambit Kinomescan (contract screening)
# Summary of the method: as §1
# CHEK2 = CHEK2 (Homo sapiens, UniProt O96017)
# Sequence of CHEK2 (O96017 whole entry): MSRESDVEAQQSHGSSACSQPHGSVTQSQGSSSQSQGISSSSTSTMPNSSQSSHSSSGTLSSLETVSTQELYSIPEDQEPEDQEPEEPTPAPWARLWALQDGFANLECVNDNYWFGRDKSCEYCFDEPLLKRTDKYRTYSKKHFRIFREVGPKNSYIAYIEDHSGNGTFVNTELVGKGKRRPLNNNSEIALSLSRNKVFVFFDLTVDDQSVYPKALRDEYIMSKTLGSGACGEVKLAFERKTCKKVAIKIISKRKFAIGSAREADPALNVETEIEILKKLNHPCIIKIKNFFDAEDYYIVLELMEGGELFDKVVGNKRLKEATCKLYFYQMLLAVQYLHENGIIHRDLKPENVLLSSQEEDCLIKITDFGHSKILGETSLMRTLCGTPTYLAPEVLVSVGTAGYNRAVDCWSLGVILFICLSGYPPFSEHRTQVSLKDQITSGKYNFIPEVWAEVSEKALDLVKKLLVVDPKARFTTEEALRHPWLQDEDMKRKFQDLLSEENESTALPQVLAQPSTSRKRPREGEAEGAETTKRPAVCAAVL
# Summary of the method: as §1
# CTK = CTK (Homo sapiens, UniProt P42679)
# Summary of the method: as §1
# ERBB2 = target: T5, ERBB2 (Homo sapiens, UniProt P04626)
# T5 construct: purchased Ambit Kinomescan (contract panel, KINOMEscan Max)
# Summary of the method: as §1
# ERK3 = ERK3 (Homo sapiens, UniProt Q16659)
# Summary of the method: as §1
# ERK5 = target: T6, ERK5 (Homo sapiens, UniProt Q13164)
# T6 construct: purchased Ambit Kinomescan (contract panel, KINOMEscan Max)
# Summary of the method: as §1
# HCK = target: T7, HCK (Homo sapiens, UniProt P08631)
# T7 construct: purchased Ambit Kinomescan (contract screening)
# Summary of the method: as §1
# HIPK1 = target: T8, HIPK1 (Homo sapiens, UniProt Q86Z02)
# T8 construct: DNA tag (qPCR read-out); purchased Ambit Kinomescan
# Summary of the method: as §1
# JNK1 = target: T9, JNK1 (Homo sapiens, UniProt P45983); details: 1 μM
# T9 construct: purchased Ambit Kinomescan (contract panel)
# Summary of the method: as §1
# LTK = target: T10, LTK (Homo sapiens, UniProt P29376)
# T10 construct: purchased Ambit Kinomescan (contract panel)
# Summary of the method: as §1
# MAP4K4 = target: T11, MAP4K4 (Homo sapiens, UniProt O95819)
# T11 construct: purchased Ambit Kinomescan (contract screening)
# Summary of the method: as §1
# MAST1 = MAST1 (Homo sapiens, UniProt Q9Y2H9)
# Sequence of MAST1 (Q9Y2H9 whole entry): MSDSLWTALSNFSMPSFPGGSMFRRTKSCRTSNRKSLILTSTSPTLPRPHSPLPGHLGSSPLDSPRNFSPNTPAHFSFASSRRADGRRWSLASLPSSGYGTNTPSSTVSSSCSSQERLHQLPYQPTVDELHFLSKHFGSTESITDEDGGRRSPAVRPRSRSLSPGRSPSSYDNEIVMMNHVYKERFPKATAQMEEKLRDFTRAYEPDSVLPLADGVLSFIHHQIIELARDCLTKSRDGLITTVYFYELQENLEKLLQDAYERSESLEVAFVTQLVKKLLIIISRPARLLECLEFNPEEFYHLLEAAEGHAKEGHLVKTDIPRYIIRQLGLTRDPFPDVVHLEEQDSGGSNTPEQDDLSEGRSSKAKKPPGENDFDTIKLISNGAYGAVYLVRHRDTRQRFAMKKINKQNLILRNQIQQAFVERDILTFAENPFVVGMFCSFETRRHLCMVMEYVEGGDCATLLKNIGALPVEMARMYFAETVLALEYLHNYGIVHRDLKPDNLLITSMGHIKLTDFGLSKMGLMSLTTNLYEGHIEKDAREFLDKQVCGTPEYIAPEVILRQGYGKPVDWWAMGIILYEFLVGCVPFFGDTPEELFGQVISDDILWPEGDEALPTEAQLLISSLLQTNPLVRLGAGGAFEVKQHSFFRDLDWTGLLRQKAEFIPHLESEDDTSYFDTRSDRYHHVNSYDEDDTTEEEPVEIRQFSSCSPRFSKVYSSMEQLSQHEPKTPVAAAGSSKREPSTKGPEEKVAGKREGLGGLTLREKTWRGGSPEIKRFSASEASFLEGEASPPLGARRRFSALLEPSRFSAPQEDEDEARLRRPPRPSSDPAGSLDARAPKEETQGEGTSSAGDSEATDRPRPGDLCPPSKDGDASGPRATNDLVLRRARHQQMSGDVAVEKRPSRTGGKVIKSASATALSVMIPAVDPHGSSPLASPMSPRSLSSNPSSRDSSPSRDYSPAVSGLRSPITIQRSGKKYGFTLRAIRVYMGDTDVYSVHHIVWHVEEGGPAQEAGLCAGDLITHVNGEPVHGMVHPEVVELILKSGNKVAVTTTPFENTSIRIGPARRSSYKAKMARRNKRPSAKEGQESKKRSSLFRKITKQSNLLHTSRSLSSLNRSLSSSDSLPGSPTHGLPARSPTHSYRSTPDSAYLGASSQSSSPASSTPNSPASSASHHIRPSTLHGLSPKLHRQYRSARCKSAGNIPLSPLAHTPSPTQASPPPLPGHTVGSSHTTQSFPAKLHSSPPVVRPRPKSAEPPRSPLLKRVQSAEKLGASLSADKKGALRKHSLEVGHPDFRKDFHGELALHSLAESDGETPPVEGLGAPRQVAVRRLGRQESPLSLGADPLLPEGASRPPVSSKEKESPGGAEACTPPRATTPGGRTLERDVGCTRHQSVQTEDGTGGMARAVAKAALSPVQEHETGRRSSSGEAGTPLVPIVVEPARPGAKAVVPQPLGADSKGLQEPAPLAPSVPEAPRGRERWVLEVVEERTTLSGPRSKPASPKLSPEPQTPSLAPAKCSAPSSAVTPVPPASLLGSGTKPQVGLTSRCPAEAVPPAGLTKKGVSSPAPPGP
# Summary of the method: as §1
# MEK5 = MEK5 (Homo sapiens, UniProt Q13163)
# Summary of the method: as §1
# NEK2 = NEK2 (Homo sapiens, UniProt P51955)
# Summary of the method: as §1
# PDPK1 = target: T12, PDPK1 (Homo sapiens, UniProt O15530)
# T12 construct: purchased Ambit (KINOMEscan Max service)
# T12 sequence (O15530 whole entry): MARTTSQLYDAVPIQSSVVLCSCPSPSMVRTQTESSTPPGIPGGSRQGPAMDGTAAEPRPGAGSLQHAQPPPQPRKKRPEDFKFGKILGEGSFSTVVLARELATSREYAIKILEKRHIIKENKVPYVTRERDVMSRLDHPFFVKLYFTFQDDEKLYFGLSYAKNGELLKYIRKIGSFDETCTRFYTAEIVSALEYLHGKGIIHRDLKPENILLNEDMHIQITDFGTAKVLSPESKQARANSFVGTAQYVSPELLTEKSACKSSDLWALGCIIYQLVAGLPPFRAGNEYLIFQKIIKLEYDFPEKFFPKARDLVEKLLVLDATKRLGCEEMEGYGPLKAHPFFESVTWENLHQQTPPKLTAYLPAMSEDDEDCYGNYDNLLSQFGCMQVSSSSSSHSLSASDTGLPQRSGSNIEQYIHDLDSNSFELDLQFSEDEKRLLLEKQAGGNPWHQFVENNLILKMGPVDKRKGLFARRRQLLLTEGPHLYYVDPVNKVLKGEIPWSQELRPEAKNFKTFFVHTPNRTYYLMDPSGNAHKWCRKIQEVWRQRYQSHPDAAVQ
# Summary of the method: as §1
# PFTAIRE2 = PFTAIRE2 (Homo sapiens, UniProt Q96Q40)
# Summary of the method: as §1
# PRKD2 = target: T13, PRKD2 (Homo sapiens, UniProt Q9BZL6)
# T13 construct: DNA tag (qPCR read-out)
# Summary of the method: as §1
# RIOK2 = target: T14, RIOK2 (Homo sapiens, UniProt Q9BVS4)
# T14 construct: DNA tag (qPCR read-out)
# Summary of the method: as §1
# SIK2 = target: T15, SIK2 (Homo sapiens, UniProt Q9H0K1)
# T15 construct: DNA tag (qPCR read-out)
# T15 sequence (Q9H0K1 whole entry): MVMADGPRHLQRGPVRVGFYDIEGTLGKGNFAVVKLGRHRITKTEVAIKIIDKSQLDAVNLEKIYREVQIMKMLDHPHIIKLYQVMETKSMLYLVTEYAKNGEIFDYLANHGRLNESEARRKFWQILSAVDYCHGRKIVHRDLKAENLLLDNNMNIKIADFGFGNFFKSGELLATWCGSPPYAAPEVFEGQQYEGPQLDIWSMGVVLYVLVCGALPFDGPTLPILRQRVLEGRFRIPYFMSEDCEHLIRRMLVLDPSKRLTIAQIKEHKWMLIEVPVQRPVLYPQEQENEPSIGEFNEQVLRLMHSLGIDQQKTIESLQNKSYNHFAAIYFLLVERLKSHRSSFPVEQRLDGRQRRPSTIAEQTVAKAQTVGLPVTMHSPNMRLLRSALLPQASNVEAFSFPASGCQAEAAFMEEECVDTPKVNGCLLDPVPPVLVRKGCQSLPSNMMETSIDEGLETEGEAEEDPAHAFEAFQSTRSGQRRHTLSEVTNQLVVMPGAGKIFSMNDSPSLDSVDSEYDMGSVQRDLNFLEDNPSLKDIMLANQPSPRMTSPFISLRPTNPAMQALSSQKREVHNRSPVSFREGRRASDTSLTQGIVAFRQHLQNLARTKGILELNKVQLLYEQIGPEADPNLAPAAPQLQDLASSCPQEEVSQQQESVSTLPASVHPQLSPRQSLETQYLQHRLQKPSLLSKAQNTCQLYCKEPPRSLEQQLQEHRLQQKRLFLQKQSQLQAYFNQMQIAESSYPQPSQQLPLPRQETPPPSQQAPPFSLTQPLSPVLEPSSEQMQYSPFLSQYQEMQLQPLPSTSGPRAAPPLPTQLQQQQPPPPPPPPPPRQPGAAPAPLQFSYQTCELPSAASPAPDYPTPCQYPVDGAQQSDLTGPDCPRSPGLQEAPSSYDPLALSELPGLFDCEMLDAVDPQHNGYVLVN
# Summary of the method: as §1
# SYK = target: T16, SYK (Homo sapiens, UniProt P43405); details: 1 μM
# T16 construct: DNA tag (qPCR read-out)
# Summary of the method: as §1
# TAOK1 = target: T17, TAOK1 (Homo sapiens, UniProt Q7L7X3)
# T17 construct: DNA tag (qPCR read-out)
# Summary of the method: as §1
# TIE2 = TIE2 (Homo sapiens, UniProt Q02763)
# Summary of the method: as §1
# TLK2 = target: T18, TLK2 (Homo sapiens, UniProt Q86UE8)
# T18 construct: purchased Ambit Kinomescan (contract screening service)
# T18 sequence (Q86UE8 whole entry): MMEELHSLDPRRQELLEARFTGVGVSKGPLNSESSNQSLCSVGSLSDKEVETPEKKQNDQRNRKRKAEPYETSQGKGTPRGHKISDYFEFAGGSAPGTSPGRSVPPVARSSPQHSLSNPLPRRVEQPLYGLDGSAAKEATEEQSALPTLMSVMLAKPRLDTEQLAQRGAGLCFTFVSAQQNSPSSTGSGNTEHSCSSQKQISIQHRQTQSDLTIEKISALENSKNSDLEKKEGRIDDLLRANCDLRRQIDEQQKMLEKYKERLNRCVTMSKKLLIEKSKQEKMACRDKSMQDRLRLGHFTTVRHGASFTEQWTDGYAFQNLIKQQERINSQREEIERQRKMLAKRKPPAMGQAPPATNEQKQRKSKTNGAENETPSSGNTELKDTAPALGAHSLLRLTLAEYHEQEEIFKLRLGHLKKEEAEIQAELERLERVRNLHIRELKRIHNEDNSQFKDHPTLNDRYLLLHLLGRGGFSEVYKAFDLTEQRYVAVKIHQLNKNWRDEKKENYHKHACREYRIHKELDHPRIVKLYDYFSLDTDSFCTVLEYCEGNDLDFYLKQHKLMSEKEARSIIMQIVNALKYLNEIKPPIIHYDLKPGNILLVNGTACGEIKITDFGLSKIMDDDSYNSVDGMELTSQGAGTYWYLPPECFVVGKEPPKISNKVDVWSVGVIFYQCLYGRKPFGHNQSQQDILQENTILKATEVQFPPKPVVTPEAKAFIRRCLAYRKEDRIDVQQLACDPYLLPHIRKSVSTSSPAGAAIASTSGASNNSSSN
# Summary of the method: as §1
# TNK1 = target: T19, TNK1 (Homo sapiens, UniProt Q13470)
# T19 construct: DNA tag (qPCR read-out)
# T19 sequence (Q13470 whole entry): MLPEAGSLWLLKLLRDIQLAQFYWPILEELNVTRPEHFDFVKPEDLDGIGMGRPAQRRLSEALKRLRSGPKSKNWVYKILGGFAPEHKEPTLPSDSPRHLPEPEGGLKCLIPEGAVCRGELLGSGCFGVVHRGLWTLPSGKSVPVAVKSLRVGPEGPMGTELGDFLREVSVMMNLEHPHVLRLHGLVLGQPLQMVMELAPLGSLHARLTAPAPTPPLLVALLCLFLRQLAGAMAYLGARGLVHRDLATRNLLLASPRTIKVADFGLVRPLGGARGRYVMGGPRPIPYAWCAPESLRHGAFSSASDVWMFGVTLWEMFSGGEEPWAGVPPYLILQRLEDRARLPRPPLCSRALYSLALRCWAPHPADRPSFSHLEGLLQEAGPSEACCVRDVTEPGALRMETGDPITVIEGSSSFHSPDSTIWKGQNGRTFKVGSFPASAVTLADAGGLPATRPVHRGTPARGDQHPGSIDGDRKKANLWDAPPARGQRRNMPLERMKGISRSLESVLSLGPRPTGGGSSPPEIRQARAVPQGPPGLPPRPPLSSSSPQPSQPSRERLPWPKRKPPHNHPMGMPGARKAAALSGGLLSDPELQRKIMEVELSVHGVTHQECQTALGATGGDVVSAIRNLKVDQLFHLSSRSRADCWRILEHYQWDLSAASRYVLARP
# Summary of the method: as §1
# TSSK1B = target: T20, TSSK1B (Homo sapiens, UniProt Q9BXA7)
# T20 construct: purchased Ambit Kinomescan (contract screening service)
# Summary of the method: as §1
# TXK = TXK (Homo sapiens, UniProt P42681)
# Summary of the method: as §1
# WEE2 = target: T21, WEE2 (Homo sapiens, UniProt P0C1S8)
# T21 construct: purchased Ambit Kinomescan (contract screening service)
# Summary of the method: as §1
# p38-delta = p38-delta (Homo sapiens, UniProt O15264)
# Summary of the method: as §1
structure (smiles),measurement,setting,value
"NCCCNc1nc2c(Br)c(Br)c(Br)c(Br)c2[nH]1 [Compound 11, N-(3-aminopropyl)-4,5,6,7-tetrabromo-1H-benzo[d]imidazol-2-amine]",remaining binding at 1 µM,[1],100%
same,remaining binding at 1 µM,ABL1-phssophorylated,94%
same,remaining binding at 1 µM,ACVR1B,100%
same,remaining binding at 1 µM,AKT3,83%
same,remaining binding at 1 µM,ASK1,100%
same,remaining binding at 1 µM,AURKA,96%
same,remaining binding at 1 µM,CAMK1G,100%
same,remaining binding at 1 µM,CAMK2G,100%
same,remaining binding at 1 µM,CHEK2,80%
same,remaining binding at 1 µM,CTK,74%
same,remaining binding at 1 µM,ERBB2,100%
same,remaining binding at 1 µM,ERK3,75%
same,remaining binding at 1 µM,ERK5,100%
same,remaining binding at 1 µM,HCK,98%
same,remaining binding at 1 µM,HIPK1,2.8%
same,% binding,JNK1,100%
same,remaining binding at 1 µM,LTK,100%
same,remaining binding at 1 µM,MAP4K4,98%
same,remaining binding at 1 µM,MAST1,95%
same,remaining binding at 1 µM,MEK5,73%
same,remaining binding at 1 µM,NEK2,99%
same,remaining binding at 1 µM,PDPK1,84%
same,remaining binding at 1 µM,PFTAIRE2,73%
same,remaining binding at 1 µM,PRKD2,42%
same,remaining binding at 1 µM,RIOK2,100%
same,remaining binding at 1 µM,SIK2,100%
same,% binding,SYK,100%
same,remaining binding at 1 µM,TAOK1,100%
same,remaining binding at 1 µM,TIE2,91%
same,remaining binding at 1 µM,TLK2,100%
same,remaining binding at 1 µM,TNK1,90%
same,remaining binding at 1 µM,TSSK1B,100%
same,remaining binding at 1 µM,TXK,93%
same,remaining binding at 1 µM,WEE2,100%
same,remaining binding at 1 µM,p38-delta,100%
